The record followed here is patent publication US8557580B2, “Methods and compositions for the differentiation of stem cells” (Cellular Dynamics International, Inc., priority 2009, dated 2013).

The subject of this assay is Individualized ES cells. Kind of assay: Attachment and survival of individualized ES cells seeded in TeSR medium with or without ROCK inhibitor. Conditions: H1152 at 1 uM, fibronectin-coated surfaces. The format is cell-based, human. How it is done:
Variations in input ES colony size and colony density can lead to substantial variability in performance of any differentiation method. Therefore, the dispersion of ES colonies into individual cells prior to initiating differentiation was investigated. Cultured populations of ES cells were dispersed or individualized with trypsin or TrypLE. Dispersed ES cells were then seeded in TeSR medium, with or without a ROCK inhibitor (H1152, 1 μM). Differentiation procedures described herein were performed with the individualized cultures.
Furthermore, if the seeding density is too low (less than approximately 1×10^4 cells per cm^2), cells detach and lose viability even in the presence of a ROCK inhibitor. If seeded at too high a cell density (greater than 5×10^4 cells per cm^2), cells remain attached, but fail to differentiate into hematoendothelial progenitors. The optimum seeding density between these limits is dependent on the method used for cell expansion, the passage number, and the overall condition of the ES cells.

SMILES strings stand for the structures.

In the case of `Cc1cncc2cccc(S(=O)(=O)N3CCCNC[C@@H]3C)c12` [H1152], the “attachment and survival of individualized ES cells” value is “do not attach and survive without the addition of a survival factor”.
